Holding throughout (format): cell-based
The subject of assay [1] is T47D (PI3Kα H1047R mutant) cells. The experiment in a line: Inhibition of pAKT formation, alphaLISA SureFire Ultra AKT 1/2/3 (pS473), T47D cells. The note with it: Homo sapiens, T47D, T47D (PI3Kα H1047R mutant) cells; inhibition of pAKT (pS473) formation; approximately one hour or 24 hours treatment; read-out: T47D pAKT (H1047R mutant) IC50. The method, then:
The ability of a compound of Formula (I) to inhibit the formation of pAKT was measured using alphaLISA Surefire Ultra AKT 1/2/3 (pS473) Assay Kit (#ALSU-PAKT-B50K) was obtained from Perkin Elmer (Waltham, MA).
To prepare assay plates for pAKT alphaLISA assays, cells were trypsinized, resuspended in fresh media, and viable cells were counted utilizing trypan blue exclusion. Prior to seeding, cells were washed with PBS and resuspended in HBSS (Gibco, #14025092). T47D (12,000/w), SKBR3(12,000/w), or MKN1(24,000/w) cells were seeded at 12 μl per well in a solid white flat bottom 384 cell culture plate (Perkin Elmer #6007680).
Immediately after seeding, cells were dosed using an Echo Liquid Handler (Beckman Coulter) with compounds at a […] starting concentration and serially diluted (1:4) for a total of 10 concentrations. […] Cells were incubated with the compounds (solubilized in DMSO) for approximately one hour or 24 hours at 37° C. After one hour (or 24 hours) of treatment, cells were lysed with 3 μl of the 5× lysis buffer (provided and incubated at room temperature for 15 min on a microtiter plate shaker). Once cells were sufficiently lysed, 7.5 μl of the acceptor bead mix (made using the manufacturers recommended dilutions) was added to each well and left on the microtiter plate shaker for 1 min prior to incubating plates at room temperature for one hour, in the absence of light. After one hour of incubation with the acceptor bead mix, 7.5 μl of the donor bead mix (made using the manufacturers recommended dilutions) was added to each well and left on the microtiter plate shaker for 1 min prior to incubating plates at room temperature overnight in the absence of light. Plates were then imaged the following day using a CLARIOstar microplate reader (BMG Labtech, Germany).
Percent of control values were calculated by subtracting the average signal from the positive control (alpelisib) treated wells from all treated wells (including DMSO control wells) and then divided by the average signal from the vehicle DMSO treated control wells. Percent of vehicle control values were plotted as log (inhibitor) vs. response-Variable slope (four parameters) for curve fitting and IC50 values were determined using XLfit.
Key: N.D. =not determined
Inhibition of pAKT in T47D (PI3Kα H1047R mutant) cells by Exemplary Compounds of Formula (I)

Assay [2] has the same test system. The experiment in a line: CellTiter-Glo 2.0 luminescent cell viability assay, 72 hours, T47D cells. The note with it: Homo sapiens, T47D, 72 h, T47D (PI3Kα H1047R mutant) cells, CellTiter-Glo, approximately 72 hours; read-out: T47D (H1047R mutant) Viability IC50. Put shortly: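 Viability was measured by CellTiter-Glo 2.0 luminescence after approximately 72 h of compound exposure at 37° C. Plating was 1000 cells per well the day before dosing, with ten 1:4 dilutions from a 10 µM top concentration. Values as percent of vehicle were fitted by variable-slope log(inhibitor) regression to give IC50.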

In assay [3] the test system is SKBR3 (PI3Kα wild type) cells. The experiment in a line: CellTiter-Glo 2.0 luminescent cell viability assay, 72 hours, SKBR3 cells. The note with it: Homo sapiens, SK-BR-3, 72 h, SKBR3 (PI3Kα wild type) cells, CellTiter-Glo, approximately 72 hours; read-out: SKBR3 (WT) Viability IC50. Put shortly: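 Viability measured via CTG luminescence following roughly 72 hours of compound exposure at 37° C. Dosing used a 10 um starting concentration diluted 1:4 over 10 points; percent-of-vehicle data fitted with a variable-slope four-parameter model for IC50.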

In general, IC50 refers to the concentration that inhibits the measured activity by half.

Take `Cc1cc([C@@H](C)Nc2ccccc2C(=O)O)c2nc(N3CCN(c4ccccc4C#N)CC3)c(C)c(=O)n2c1` [Example 10-45, (R)-2-((1-(2-(4-(2-cyanophenyl)piperazin-1-yl)-3,7-dimethyl-4-oxo-4H-pyrido[1,2-a]pyrimidin-9-yl)ethyl)amino)benzoic acid]: the IC50 in assay [1] is 2.94 nM; in assay [2], 64.2 nM; in assay [3] it was greater than 10000 nM.

Regarding `Cc1cc([C@@H](C)Nc2ccccc2C(=O)O)c2nc(N3CCN(c4cc(C)no4)CC3)c(C)c(=O)n2c1` [Example 10-48, (R)-2-((1-(3,7-dimethyl-2-(4-(3-methylisoxazol-5-yl)piperazin-1-yl)-4-oxo-4H-pyrido[1,2-a]pyrimidin-9-yl)ethyl)amino)benzoic acid], the IC50 is 2.96 nM in assay [1], 66.3 nM in assay [2] and greater than 10000 nM in assay [3].

Regarding `Cc1cc([C@@H](C)Nc2ccccc2C(=O)O)c2nc(N(C)C3CC(F)(F)C3)c(C#N)c(=O)n2c1` [Example 10-49, (R)-2-((1-(3-cyano-2-((3,3-difluorocyclobutyl)(methyl)amino)-7-methyl-4-oxo-4H-pyrido[1,2-a]pyrimidin-9-yl)ethyl)amino)benzoic acid], the values for the half-inhibitory concentration (IC50) in assay [1], in assay [2] and in assay [3] were 2.11 nM, 66.4 nM and greater than 10000 nM, respectively.

On to `Cc1cc([C@@H](C)Nc2ccc(Cl)nc2C(=O)O)c2nc(N3Cc4ccc(F)cc4C3)c(C#N)c(=O)n2c1` [Example 10-50, (R)-6-chloro-3-((1-(3-cyano-2-(5-fluoroisoindolin-2-yl)-7-methyl-4-oxo-4H-pyrido[1,2-a]pyrimidin-9-yl)ethyl)amino)picolinic acid], for which the values for the IC50 in assay [1], in assay [2] and in assay [3] were 1.34 nM, 66.5 nM and greater than 10000 nM, respectively.

Regarding `Cc1cc([C@@H](C)Nc2ccccc2C(=O)O)c2nc(N3CC(F)(F)C(F)(F)C3)c(C)c(=O)n2c1` [Example 10-51, (R)-2-((1-(3,7-dimethyl-4-oxo-2-(3,3,4,4-tetrafluoropyrrolidin-1-yl)-4H-pyrido[1,2-a]pyrimidin-9-yl)ethyl)amino)benzoic acid], the 50% inhibitory concentration (IC50) in assay [1] is 1.93 nM; in assay [2], 68 nM; in assay [3], greater than 10000 nM.

For the compound `Cc1cc([C@@H](C)Nc2ccccc2C(=O)O)c2nc(N3CCN(c4ccc(C#N)cc4F)CC3)c(C)c(=O)n2c1` [Example 10-55, (R)-2-((1-(2-(4-(4-cyano-2-fluorophenyl)piperazin-1-yl)-3,7-dimethyl-4-oxo-4H-pyrido[1,2-a]pyrimidin-9-yl)ethyl)amino)benzoic acid], the IC50 worked out at 3.35 nM in assay [1], 72.4 nM in assay [2] and 4140 nM in assay [3].

For the compound `COC1(C)CCN(c2nc3c([C@@H](C)Nc4ccccc4C(=O)O)cc(C)cn3c(=O)c2C)CC1` [Example 10-56, (R)-2-((1-(2-(4-methoxy-4-methylpiperidin-1-yl)-3,7-dimethyl-4-oxo-4H-pyrido[1,2-a]pyrimidin-9-yl)ethyl)amino)benzoic acid], the 50% inhibitory concentration (IC50) is 3.95 nM in assay [1], 73.2 nM in assay [2] and greater than 10000 nM in assay [3].

Turning to `Cc1cc([C@@H](C)Nc2ccccc2C(=O)O)c2nc(N3CCN(c4ccccc4)CC3C)c(C#N)c(=O)n2c1` (stereo partly drawn) [Example 10-57, 2-(((1R)-1-(3-cyano-7-methyl-2-(2-methyl-4-phenylpiperazin-1-yl)-4-oxo-4H-pyrido[1,2-a]pyrimidin-9-yl)ethyl)amino)benzoic acid], the IC50 in assay [1] is 5.17 nM; in assay [2], 73.3 nM; in assay [3], greater than 10000 nM.

On to `Cc1cc([C@@H](C)Nc2ccccc2C(=O)O)c2nc(N3CCC(c4ccn(C)n4)CC3)c(C)c(=O)n2c1` [Example 10-58, (R)-2-((1-(3,7-dimethyl-2-(4-(1-methyl-1H-pyrazol-3-yl)piperidin-1-yl)-4-oxo-4H-pyrido[1,2-a]pyrimidin-9-yl)ethyl)amino)benzoic acid], for which the values for the half-maximal inhibitory concentration (IC50) in assay [1], in assay [2] and in assay [3] were 4.02 nM, 73.3 nM and greater than 10000 nM, respectively.

The values are drawn from patent US20260078120A1, “SUBSTITUTED PYRIDOPYRIMIDINONES” (MIRATI THERAPEUTICS, INC., priority 2022, published 2026).
